Here are results for 15 compounds from ChEMBL document CHEMBL1201862, “PubChem BioAssay data set” (2004).

As usually defined, the AC50 is the concentration at which the activity in the assay is half-maximal. Usually CC50 stands for the concentration at which the toxic effect on the cells reaches its halfway point.

A short description of assay [1]: A549 cell cytotoxicity, dose response, cytotoxicity control, plate reader, cherry-pick, antagonist series (AID 743412). Type of assay: functional, cell-based.
In the next assay the test system is HEK293. In words: EBV LMP1 TES2 canonical NF-kB signalling blockers – cell-based, HEK293, luciferase, cherry-pick, dose response (AID 588343). Type of assay: functional. To be noted: Homo sapiens.
The nature of assay [2]: blockade of melanocortin 4 receptor signaling – cell-based, plate reader, cherry pick, counter-screen for LGR2 antagonist project, dose response (AID 743444).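 Further: transfected HEK 293 cells stimulated with alpha-MSH peptide; potency of inhibitors of the alpha-MSH evoked signal.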 Type of assay: functional.
The nature of assay [3]: blockers of bursicon-stimulated LGR2 cAMP reporter – cell-based, HEK293, CRE-luciferase reporter, cherry pick, set 2, dose response (AID 743343).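 Further: transfected cells were stimulated with diluted bursicon conditioned medium after compound addition.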 Format: functional.
Assay [4] deals with T1, Rac GTPase-activating protein 1 (Homo sapiens, UniProt Q9H0H5).
T1 sequence (Q9H0H5 whole entry): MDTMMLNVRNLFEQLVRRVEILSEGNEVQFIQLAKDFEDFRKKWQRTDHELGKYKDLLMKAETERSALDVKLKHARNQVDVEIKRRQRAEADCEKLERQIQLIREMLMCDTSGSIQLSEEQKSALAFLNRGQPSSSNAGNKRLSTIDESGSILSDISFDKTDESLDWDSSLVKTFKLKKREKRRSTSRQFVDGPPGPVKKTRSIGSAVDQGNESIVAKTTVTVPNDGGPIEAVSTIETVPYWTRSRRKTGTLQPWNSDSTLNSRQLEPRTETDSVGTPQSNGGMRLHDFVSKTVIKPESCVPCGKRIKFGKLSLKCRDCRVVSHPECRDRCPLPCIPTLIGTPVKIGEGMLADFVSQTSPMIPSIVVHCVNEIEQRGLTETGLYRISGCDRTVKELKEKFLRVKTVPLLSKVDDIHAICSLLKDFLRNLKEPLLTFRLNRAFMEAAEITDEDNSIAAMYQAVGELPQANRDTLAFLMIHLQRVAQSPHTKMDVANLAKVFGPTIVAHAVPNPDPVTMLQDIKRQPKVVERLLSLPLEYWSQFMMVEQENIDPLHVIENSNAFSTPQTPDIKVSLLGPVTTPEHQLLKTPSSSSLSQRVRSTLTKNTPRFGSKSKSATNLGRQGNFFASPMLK
Nature of the assay: blockers of MgcRacGAP-driven Rac1 GTP hydrolysis – biochemical, ADP Hunter fluorescence, primary and confirmatory, confirmation (AID 624330). Type of assay: functional.

A short description of assay [5]: viability loss in THP-1 monocytes – THP-1 cells, cytotoxicity control for Vif-APOBEC3G degradation inhibitor project, dose response (AID 1117359). Format: functional. Particulars: THP-1.
Assay [6] can be described thus: alpha-synuclein stem-loop luciferase translation blockers – H4 neuroglioma cells, luminescence, confirmation (AID 1988). Format: functional, cell-based.
Assay [7] can be described thus: Luminescence Cell-Based Dose Response HTS to Identify Inhibitors of 5'UTR Stem-Loop Driven Prion Protein mRNA Translation in H4 Neuroglioblastoma Cells. [Related pubchem assays: 1827 (Project Summary), 1813 (Primary HTS)]. Type of assay: functional.
Assay [8] in a line: toxicity toward HepG2 liver cells – cell-based, plate reader, cherry-pick, antagonist series, cytotoxicity control, dose response (AID 743416). Type of assay: functional.
Assay [9] in a line: luciferase reporter signal suppression in cells – H4 neuroglioma cells, luminescence, dose response (AID 1990). Type of assay: functional, cell-based. (A reporter such as luciferase makes a cellular process visible.)
The next assay addresses T2, Estrogen receptor (Homo sapiens, UniProt P03372).
T2 sequence (P03372 whole entry): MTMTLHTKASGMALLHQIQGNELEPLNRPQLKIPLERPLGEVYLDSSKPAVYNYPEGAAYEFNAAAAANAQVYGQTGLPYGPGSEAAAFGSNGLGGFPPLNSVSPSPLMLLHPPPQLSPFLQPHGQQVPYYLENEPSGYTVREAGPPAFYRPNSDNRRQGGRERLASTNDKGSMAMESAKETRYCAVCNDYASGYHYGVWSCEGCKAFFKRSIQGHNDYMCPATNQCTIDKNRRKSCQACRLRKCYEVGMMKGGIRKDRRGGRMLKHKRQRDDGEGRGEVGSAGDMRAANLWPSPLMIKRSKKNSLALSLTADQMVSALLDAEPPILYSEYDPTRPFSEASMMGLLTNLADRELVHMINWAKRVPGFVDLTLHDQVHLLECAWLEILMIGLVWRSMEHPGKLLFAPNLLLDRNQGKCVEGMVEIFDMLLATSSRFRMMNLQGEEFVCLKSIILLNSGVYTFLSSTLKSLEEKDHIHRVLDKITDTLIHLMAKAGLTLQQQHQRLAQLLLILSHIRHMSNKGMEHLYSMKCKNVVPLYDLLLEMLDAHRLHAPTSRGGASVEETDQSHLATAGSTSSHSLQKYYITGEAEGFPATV

Assay [10] in a line: Dd2 malaria parasite growth inhibition potency – SYBR Green, dry powder samples, dose response (AID 1159566).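 Further: potency for growth inhibition with lower SYBR green DNA signal.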 Format: functional, cell-based.
The nature of assay [11]: growth inhibition of PfATP4-mutant resistant parasites – NITD609-resistant line, SYBR Green, dry powder, dose response (AID 1159571).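 Further: parasites synchronized at ring stage by sorbitol before testing.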 Format: functional, cell-based.
Assay [12] in a line: P. falciparum Dd2 growth inhibitors, dose response, SYBR Green, cherry-picked samples (AID 1159567). Type of assay: functional, cell-based.
Assay [13] can be described thus: toxicity to human HepG2 hepatoma cells – cell-based, plate reader, dry powder samples, cytotoxicity control, dose response (AID 1159569).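 Further: inhibitor potency with signal falling toward the positive control level.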 Type of assay: functional.
The nature of assay [14]: growth inhibition of yeast DHODH-expressing 3D7 parasites – SYBR Green, dry powder samples, dose response (AID 1159570).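 Further: parasite growth measured after 72 hours of compound exposure.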 Format: functional, cell-based.
Assay [15] has as its target T3, Corticotropin-releasing factor receptor 2/Corticotropin-releasing factor-binding protein (Homo sapiens, UniProt P24387+Q13324).
T3 sequence (Q13324 whole entry): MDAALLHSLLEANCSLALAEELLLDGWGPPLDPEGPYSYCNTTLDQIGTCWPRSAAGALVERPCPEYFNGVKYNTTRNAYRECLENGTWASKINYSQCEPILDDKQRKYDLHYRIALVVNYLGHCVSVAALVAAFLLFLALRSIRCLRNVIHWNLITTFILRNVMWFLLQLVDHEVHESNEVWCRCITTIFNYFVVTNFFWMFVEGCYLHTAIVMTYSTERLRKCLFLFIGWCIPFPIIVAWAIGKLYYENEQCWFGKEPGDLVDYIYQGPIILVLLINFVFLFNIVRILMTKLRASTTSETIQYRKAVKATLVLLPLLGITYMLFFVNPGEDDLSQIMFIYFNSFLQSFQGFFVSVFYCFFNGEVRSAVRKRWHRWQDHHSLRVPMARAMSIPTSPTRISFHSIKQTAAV
T3 sequence (P24387 whole entry): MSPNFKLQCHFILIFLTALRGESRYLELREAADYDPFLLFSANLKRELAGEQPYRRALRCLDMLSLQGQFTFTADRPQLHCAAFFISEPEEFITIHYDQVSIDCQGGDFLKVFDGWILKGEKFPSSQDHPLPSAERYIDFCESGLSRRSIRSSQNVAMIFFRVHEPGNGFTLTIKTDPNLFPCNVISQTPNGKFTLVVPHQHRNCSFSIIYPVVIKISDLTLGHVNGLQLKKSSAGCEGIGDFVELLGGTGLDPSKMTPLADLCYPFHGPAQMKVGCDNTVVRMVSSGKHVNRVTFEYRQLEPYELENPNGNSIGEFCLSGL
In words: activators of CRF receptor 2 with binding protein – uHTS hits, confirmation (AID 602473). Type of assay: functional. Particulars: read-out: EC50_Mean.

Assay [16] can be described thus: Trypanosoma cruzi growth suppression in host cells – NIH3T3 host cells, beta-gal luminescence, confirmation (AID 2044).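 Further: intracellular parasites grown in NIH/3T3 mouse fibroblasts as host cells; luminescent beta-galactosidase reporter signal from transgenic T. cruzi replicating inside host cells; inhibitors lower the luminescence signal.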 Type of assay: functional, cell-based.
Assay [17] concerns the target T3, Corticotropin-releasing factor receptor 2/Corticotropin-releasing factor-binding protein. In words: Dose Response confirmation of uHTS hits for small molecule antagonists of the CRF-binding protein and CRF-R2 receptor complex. Particulars: read-out: IC50_Mean. Type of assay: functional.
The nature of assay [18]: NIH3T3 cell viability loss – ATP luminescence, mouse fibroblasts, counter-screen, dose response (AID 2010).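 Further: cells exposed to compound for about 90 hours before reading.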 Format: functional, cell-based. Background: Counterscreens check selectivity or assay interference.
The nature of assay [19]: blockers of HIV-1 envelope-mediated cell-cell fusion – cherry-pick, dose response (AID 652057). Format: functional, cell-based.
The target of a further assay is Paired box protein Pax-8 (Homo sapiens, UniProt Q06710). Nature of the assay: PAX8 transcriptional activity inhibition in RMG-I – RMG-I cells, luciferase, cherry-pick, dose response (AID 687027).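 Further: luciferase reporter driven by Pax8 target thyroperoxidase promoter measured by SteadyGlo luminescence.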 Format: functional, cell-based.
A short description of assay [20]: HIV-1 AD8 envelope cell-cell fusion blockers – cherry-pick, dose response (AID 652062).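 Further: luciferase signal from cell-cell fusion driven by HIV-1 clade B AD8 Env; potency is for inhibitors of fusion seen as a drop in luminescence.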 Type of assay: functional, cell-based.
Assay [21] is described as follows: blockers of HIV-1 ZM109 envelope-driven cell-cell fusion – HeLa effector, CEM target cells, luciferase, cherry-pick, dose response (AID 652058).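 Further: luciferase signal from HIV-1 Env mediated cell-cell fusion of effector and target cells.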 Type of assay: functional, cell-based.
Assay [22] can be described thus: toxicity to human hepatoma HepG2 cells – cell-based, cherry-picked samples, cytotoxicity control, dose response (AID 1159577). Type of assay: functional.

The source made the active and inactive calls. Where only a bound is given, the exact number is not on record here.

Paired box protein Pax-8, sequence (Q06710 whole entry, the tested form may be a part): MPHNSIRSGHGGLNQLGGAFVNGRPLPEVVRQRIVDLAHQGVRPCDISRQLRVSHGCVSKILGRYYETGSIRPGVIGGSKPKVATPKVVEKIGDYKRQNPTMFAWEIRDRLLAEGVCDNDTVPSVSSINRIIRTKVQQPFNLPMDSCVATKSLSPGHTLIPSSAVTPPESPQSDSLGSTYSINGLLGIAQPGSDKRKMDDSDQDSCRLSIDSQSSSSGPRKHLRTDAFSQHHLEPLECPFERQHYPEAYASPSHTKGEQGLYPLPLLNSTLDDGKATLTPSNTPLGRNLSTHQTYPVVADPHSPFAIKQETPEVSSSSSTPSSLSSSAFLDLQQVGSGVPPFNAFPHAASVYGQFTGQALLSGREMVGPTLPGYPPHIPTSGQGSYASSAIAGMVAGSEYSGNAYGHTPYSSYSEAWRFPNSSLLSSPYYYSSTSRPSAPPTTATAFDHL

On to `COc1ccc(-n2cc(C(=O)c3ccccc3O)cn2)cc1`, for which the AC50 is > 52 µM (inactive) in [1], 2.43 µM (active) in the assay on HEK293, 10.7 µM (active) in assay [2] and 8.21 µM (active) in assay [3].
Regarding `C=CCc1ccc(OCCOCCNCCCC)c(OC)c1`, in assay [4], the IC50 was 132 µM (active). Moreover, the cytotoxic concentration (CC50) in [5] is > 40 µM (active).
As to `C=CCN1CCN(C(=O)CCCc2ccccc2)CC1`, the EC50 in assay [6] is 3.79 µM (active); in assay [7] it was 6.53 µM (active); in [9], 7.4 µM (inconclusive). The results for the AC50 in assay [8], in [2] and in [3] were > 52 µM (inactive), 8.87 µM (active) and 5.97 µM (active), respectively.
For `CS(=O)(=O)N(CC(=O)NCc1ccco1)c1ccc2c(c1)OCO2`, the IC50 at Estrogen receptor is given as 40.1 µM (not active).
As to `C[C@H]1CN([C@@H](C)CO)C(=O)c2c(c3ccccc3n2C)-c2ccccc2CO[C@H]1CN(C)S(=O)(=O)c1ccc(Cl)cc1`, the AC50 in [10] is 0.108 µM (active); in assay [11], 0.154 µM (active); in assay [12], 0.396 µM (active); in assay [13], 41.2 µM (active); in assay [14] it was 0.134 µM (active).
For `COc1ccc2c3c([nH]c2c1)[C@H](CO)N(C(=O)Nc1ccc(F)cc1)CC31CCN(S(=O)(=O)c2ccccc2)CC1` the same measures were 1.3 µM (active), 0.417 µM (active), 0.909 µM (active), 48.9 µM (active) and 2.14 µM (active).
Consider `CCOC(=O)c1c(C)[nH]c(C(=O)OCC(=O)Nc2sc(C(=O)N(C)C)c(C)c2C(=O)OCC)c1C`, for which the EC50 in [15] was > 53 µM (inactive); in assay [16], 0.36 µM (active); in assay [18], > 60 µM (not active). The CC50 in [5] was > 40 µM (active). Further, in assay [17], the IC50 is > 47.1 µM (inactive).
As for `COc1ccc(-n2nc(C(=O)Nc3ccc(OC)c(OC)c3)c3c4ccccc4n(C)c3c2=O)cc1`, the IC50 against Estrogen receptor was > 50 µM (not active).
`Clc1ccc(Nc2nc(-c3ccncc3)cs2)cc1`: the IC50 on Estrogen receptor was 18.2 µM (active). The EC50 was 0.329 µM (active) in assay [16] and 4 µM (active) in [18].
In the case of `CO[C@@H]1CN(C)C(=O)c2cc(NC(C)=O)ccc2OC[C@@H](C)N(Cc2ccc(F)cc2)C[C@@H]1C`, the values for the AC50 in assay [1], in assay [2] and in assay [3] were > 47 µM (inactive), 10.7 µM (active) and 42.9 µM (active), respectively.
As for `C[C@H](CO)N1C[C@H](C)[C@@H](CN(C)C(=O)Nc2ccc(F)cc2)OCc2ccccc2-c2c(n(C)c3ccccc23)C1=O`, the AC50 was 0.348 µM (active) in [10]; < 0.26 µM (active) in assay [19]; 0.397 µM (active) in [11]; 24.6 µM (active) on Paired box protein Pax-8; 0.907 µM (active) in [12]; < 0.26 µM (active) in [20]. Besides, the figures for the AC50 in [13], in [14] and in [21] were 46.8 µM (active), 0.662 µM (active) and < 0.26 µM (active), respectively.
For the compound `N#Cc1ccc(-c2ccc([C@H]3[C@@H]4CN(C(=O)C5CCCCC5)C[C@H]3N4)cc2)cc1`, the AC50 in assay [10] is 3.47 µM (active); in [11], 4.16 µM (active); in assay [12], 2.2 µM (active); in [13] it was 42.9 µM (active); in [14], 3.78 µM (active); in [22], 24.1 µM (active).
On to `O=c1[nH]c2cc3c(cc2cc1CN(Cc1cccs1)Cc1nnnn1Cc1ccco1)OCCO3`, for which the IC50 against Estrogen receptor is recorded as > 50 µM (not active).
For the compound `CC(OC(=O)c1cccc(O)c1)C(=O)N(C)Cc1ccccc1` (stereo not drawn), the CC50 in assay [5] is > 40 µM (active).
`COc1ccccc1CN1C[C@@H]2N[C@H](C1)[C@@H]2c1ccc(-c2ccc(C#N)cc2)cc1`: the concentration at half-maximal activity (AC50) in assay [10] is 1.68 µM (active); in assay [11], 2.8 µM (active); in assay [12], 2.36 µM (active); in assay [13], 7.43 µM (active); in [14] it was 2.39 µM (active); in [22], 13.7 µM (active).
